Source: patent US9566334B2, “Combinations of a PI3K/AKT inhibitor compound with an HER3/EGFR inhibitor compound and use thereof in the treatment of a hyperproliferative disorder” (THE GENERAL HOSPITAL CORPORATION, priority 2012, dated 2017)
Entries after “also recorded” stand apart in the source; their conditions may differ.

Experiments:
[1] = system: MDA-MB-468, HCC70 and patient-derived xenograft; assay: In vivo activity in three different models of TNBC; parameters: species or system mice; conditions: for tumor growth: three TNBC models, MEHD7945A 10 mg/kg i.p. twice weekly, GDC-0068 40 mg/kg, GDC-0941 75 mg/kg oral once daily
Experimental: (§1) Several TNBC cell lines were treated with MEHD7945A, a dual-action antibody that targets both EGFR and HER3, AKT inhibitor GDC-0068, and pan-PI3K inhibitor GDC -0941. Cell viability was measured by CellTiter-Glo and Crystal Violet. Both cell line- and patient -derived xenograft models of TNBC were treated with MEHD7945A, GDC-0068, GDC-0941, or the combination of MEHD7945A with either GDC-0068 or GDC-0941. Tumor size and histology were examined. Protein expression was measured by Western blot, Mass Spectometry, CEER and immunohistochemistry.
To test the activity of these compounds in vivo, three different models of TNBC were used: two cell line (MDA-MB-468 and HCC70)-based and a patient-derived xenograft.
All mouse studies were conducted through institutional Animal Care and Use Committee (IACUC) approved animal protocols in accordance with institutional guidelines. Six-week-old female athymic nude mice were purchased from Charles River Laboratories and housed in air-filtered laminar flow cabinets with a 12-hour light cycle and food and water ad libitum.
(§2) For cell line-derived xenograft studies, mice were injected subcutaneously with 1×10^7 HCC70 or MDA-MB-468 suspended in 150 μL culture media/Matrigel (BD Biosciences) in a 4:1 ratio. One μmol/L of 17β-estradiol was supplemented in the mouse drinking water as described (Garcia-Garcia et al., Clinical cancer research: an official journal of the American Association for Cancer Research 18, 2603 (2012)).
(§3) For patient-derived xenograft (PDX) studies, tumors were subcutaneously implanted in 6-week old female athymic nude mice. Upon xenograft growth, tumor tissue was reimplanted into recipient mice, which were randomized upon implant growth. For the collection of circulating tumor cells (CTCs), tumors were implanted into the mammary pad of athymic nude mice.
(§4) Once tumors reached an average volume of about 150-250 mm^3, mice were randomized into treatment arms, with n=7-11 tumors/group. GDC-0068 [40 mg/kg] or GDC-0941 [75 mg/kg] were dissolved in 0.5% methylcellulose and 0.2% Tween-80 (MCT) solution and administered once daily via oral gavage. […] Tumors were measured by digital caliper over the entire treatment period. Tumor volume was determined using the formula: (length×width^2)×(π/6). Tumor volumes are plotted as means±SEM.

[2] = system: EGFR, HER3 and downstream signaling pathways; assay: Western blot of EGFR, HER3 and downstream signaling in cells; type: cell-based; conditions: for expression of HER3: HCC70 and MDA-MB-468 cells; for expression of HER3 / activation of EGFR and HER3: 1 uM; for activation of EGFR and HER3: HCC70 cells
Experimental: HCC70 and MDA-MB-468 TNBC cell lines, characterized by elevated levels of EGFR and loss of PTEN expression, were treated with GDC-0068, GDC-0941, MEHD7945A, and the combinations of these inhibitors.
Cells were washed with ice-cold phosphate buffered saline (PBS) and scraped into ice-cold RIPA lysis buffer (Cell Signaling) supplemented with phosphatase inhibitor cocktails (Complete Mini, and PhosphoStop (Roche)). Lysates were cleared by centrifugation at 13,000 rpm for 10 minutes at 4° C., supernatants removed and assayed for protein concentration using the Pierce BCA Protein Assay Kit (Thermo Scientific). Thirty-five micrograms of total lysate was resolved on NuPAGE 4-12% Bis-Tris gels (Life Technologies) and electrophoretically transferred to Immobilon transfer membranes (Millipore). Membranes were blocked for 1 hour in 5% nonfat dry milk in TBS-Tween and then hybridized using the following primary antibodies in 5% bovine serum albumin (BSA) TBS-Tween: phospho-Akt (Ser473), phospho-Akt (Thr308), Akt, phospho-S6 (Ser(240/4), phospho-S6 (Ser235/6), S6, phospho-PRAS40 (Thr246), PRAS40, phospho-Erk (Thr202/Tyr204), Erk, phospho-EGFR (Tyr1068), EGFR, phospho-HER3 (Tyr1289), HER3 (1:500-1:1000, Cell Signaling). Beta-actin was used as a loading control (1:5000, Sigma), also in 5% BSA TBS-Tween. Mouse and rabbit horseradish peroxidase (HRP)-conjugated secondary antibodies (1:50,000, Amersham Biosciences) were diluted in 2% nonfat dry milk in TBS-Tween. Protein—antibody complexes were detected by chemiluminescence with SuperSignal West FemtoChemiluminescent Substrate (Thermo Scientific) and images were captured with a G-BOX camera system.

[3] = system: patient-derived xenografts (PDX) of TNBC; assay: Patient-derived xenograft tumor growth; type: in vivo, mice; conditions: MEHD7945A 10 mg/Kg twice weekly, GDC-0941 75 mg/Kg daily, GDC-0068 40 mg/kg daily
Experimental: The activity of the same treatments in patient-derived xenografts (PDX) of TNBC was then tested.
as §3, §4

TNBC cell lines = assay: Cell viability by CellTiter-Glo and Crystal Violet; type: cell-based; conditions: across all TNBC cell lines; read-out: IC50s, inhibition of cell viability
Experimental: as §1
(§5) For proliferation, 5×10^5 cells were seeded in 96-well plates and treated with the indicated concentrations of GDC-0068, GDC-0941, and/or MEHD7945A. After 5 days, cells were fixed and stained with Crystal Violet. Cell proliferation was also analyzed with CellTiter-Glo Luminescent Cell Viability Assay (Promega) as described by the manufacturer. For heregulin (HRG, Peprotech) and epidermal growth factor (EGF, Peprotech)-induced proliferation, 5×10^5 cells were treated with GDC-0068, GDC-0941, and/or MEHD7945A in the presence of 4 ng/ml of ligands for 5 days and then stained with Crystal Violet.

[4] = system: HCC70 and MDA-MB-468 cells; assay: Five days proliferation analysis (Crystal Violet / CellTiter-Glo); type: cell-based; conditions: 5 days; MEHD7945A 10 nM, GDC-0068 and GDC-0941 1 uM
Experimental: Whether the combination of MEHD7945A with GDC-0068 or GDC-0941 would result in enhanced antiproliferative activity was tested in both HCC70 and MDA-MB-468 cells.
as §5

[5] = system: MDA-MB-468- and HCC70-derived xenografts; assay: Cell line-derived xenograft tumor growth; type: in vivo, mice; conditions: MDA-MB-468 and HCC70 xenografts; p less than 0.01 combination vs monotherapy
Experimental: To expand these findings in vivo, the efficacy of MEHD7945A was tested in combination with either the Akt or PI3K inhibitor in both MDA-MB-468- and HCC70-derived xenografts.
as §2, §4

EGFR and HER3 = assay: CEER analysis of active and total EGFR and HER3 in xenograft tumors; type: in vivo, mice; conditions: for active and total levels of HER3 and EGFR (CEER): TNBC PDX, tumors harvested 2 h after the last drug administration
Experimental: The levels of EGFR and HER3 expression/activation in HCC70 tumors collected at the end of the experiments (day 39) was investigated. […] Frozen tissue was analyzed by Cooperative, Enhanced, Enzyme Immunoreactive (CEER), a platform that utilizes reverse-phase detection of nanogram quantities of protein.
The levels of pathway protein expression and their activation in xenografts were determined by CEER. (Kim et al., ASCO Annual Meeting abstract P2-06-13, (2010)) CEER utilizes the formation of unique immuno-complexes between capture antibodies printed on a nitrocellulose microarray surface, the target molecule in cell lysate reacted with the slide, and two independent detector-antibodies. One of the detector-antibody is conjugated to glucose oxidase, and the other is conjugated to horseradish peroxidase. Target detection (expressed as computational unit, CU) requires the presence of both detector-antibodies and the enzyme channeling event between glucose oxidase and horseradish peroxidase will not occur unless both antibodies are in close proximity.

HCC70 cells = assay: Heregulin- and EGF-induced proliferation; type: cell-based
Experimental: For proliferation, 5×10^5 cells were seeded in 96-well plates and treated with the indicated concentrations of GDC-0068, GDC-0941, and/or MEH[…]. After 5 days, cells were fixed and stained with Crystal Violet. Cell proliferation was also analyzed with CellTiter-Glo Luminescent Cell Viability Assay (Promega) as described by the manufacturer. For heregulin (HRG, Peprotech) and epidermal growth factor (EGF, Peprotech)-induced proliferation, 5×10^5 cells were treated with GDC-0068, GDC-0941, and/or MEH[…] in the presence of 4 ng/ml of ligands for 5 days and then stained with Crystal Violet.

[6] = HCC70 tumors collected at day 39
[7] = cells stimulated with either EGF or Heregulin

| Molecule | tumor growth [1] | expression of HER3 ([2]; 24 hours) | activation of EGFR and HER3 ([2]; 24 hours) | tumor growth [3] | IC50 (TNBC cell lines) | inhibition of cell proliferation/viability [4] | tumor growth inhibition [5] | EGFR and HER3 expression and phosphorylation (CEER) (EGFR and HER3; [6]) | total EGFR receptor levels (CEER) (EGFR and HER3; [6]) | active and total levels of HER3 and EGFR (CEER) (EGFR and HER3) | EGFR and HER3 phosphorylation consequent to PI3K inhibition in treated tumors ([1]; analysis of treated tumors) | inhibition of the PI3K and ERK downstream pathways ([2]; addition of MEHD7945A 10 nM to GDC-0068 or GDC-0941, both cell lines) | induction of EGFR and HER3 phosphorylation by GDC-0068 or GDC-0941 ([2]; addition of MEHD7945A 10 nM, both cell lines, 24 hours) | HER3/EGFR receptor phosphorylation [2, 7] | effect on antiproliferative activity mediated by PI3K/Akt inhibition (HCC70 cells; HCC70 cells stimulated with EGF, antibodies 10 nM, GDC-0068 and GDC-0941 1 uM, 5 days) | cooperation with the antiproliferative activity of GDC-0068 and GDC-0941 (HCC70 cells; HCC70 cells stimulated with heregulin (HRG), antibodies 10 nM, 5 days) | effect on antiproliferative activity of the PI3K inhibitors (HCC70 cells; [7]) | EGFR phosphorylation (CEER) (EGFR and HER3; HCC70 xenografts) | HER3 activation (CEER) (EGFR and HER3; HCC70 xenografts) |
| --- | --- | --- | --- | --- | --- | --- | --- | --- | --- | --- | --- | --- | --- | --- | --- | --- | --- | --- | --- |
| CC(C)NC[C@@H](C(=O)N1CCN(c2ncnc3c2[C@H](C)C[C@H]3O)CC1)c1ccc(Cl)cc1 [GDC-0068] | variable delay in tumor growth | increased expression of HER3 | activation of both EGFR and HER3 | superior antitumor activity compared with GDC-0941 | ≥ 170 nM | varying sensitivity | responded only modestly | overall increase of both EGFR and HER3 expression and phosphorylation | no changes in the total receptor levels were observed | increased; also recorded: lower ability to induce EGFR and HER3 phosphorylation |  |  |  |  |  |  |  |  |  |
| CS(=O)(=O)N1CCN(Cc2cc3nc(-c4cccc5[nH]ncc45)nc(N4CCOCC4)c3s2)CC1 [GDC-0941, 4-(2-(1H-indazol-4-yl)-6-((4-(methylsulfonyl)piperazin-1-yl)methyl)thieno[3,2-d]pyrimidin-4-yl)morpholine] | variable delay in tumor growth | increased expression of HER3 | activation of both EGFR and HER3 | delayed tumor growth | ≥ 170 nM | varying sensitivity | responded only modestly | overall increase of both EGFR and HER3 expression and phosphorylation |  | increased |  |  |  |  |  |  |  |  |  |
| MEHD7945A: dual-action antibody with two identical antigen binding domains, each of which specifically binds to both HER3 and EGFR | variable delay in tumor growth |  |  | delayed tumor growth |  | varying sensitivity | responded only modestly |  |  | prevented receptor phosphorylation | effectively prevented EGFR and HER3 phosphorylation | enhanced the inhibition of the PI3K and ERK downstream pathways | prevented the induction of EGFR and HER3 phosphorylation | prevented HER3/EGFR receptor phosphorylation | enhanced the antiproliferative activity mediated by PI3K/Akt inhibition | superior to cetuximab | improved the antiproliferative activity of the PI3K inhibitors | blocked EGFR phosphorylation | decreased HER3 activation |
